Patent publication US11655239B2 (SHANGHAI INSTITUTE OF MATERIAL MEDICA, CHINESE ACADEMY OF …, priority 2019, dated 2023)

Experiments:
EPH-A2 = EPH-A2 (Homo sapiens (Human), UniProt P29317); experiment: Enzyme selectivity test (ELISA), EPH-A2; type: biochemical
Method: (§1) 1) Enzyme reaction substrate Poly(Glu, Tyr) 4:1 was diluted to 20 μg/mL with potassium-free PBS (10 mM sodium phosphate buffer, 150 mM NaCl, pH 7.2-7.4), and the microtiter plate was coated with 125 μL/well and placed at 37° C. for 12-16 hours of reaction. The liquid in the well was discard. The plate was washed three times with T-PBS (potassium-free PBS containing 0.1% Tween-20, 200 μL/well), 5 minutes each time. The ELISA plate was dried in an oven at 37° C. for 1 to 2 hours.
(§2) 2) Reaction buffer (50 mM HEPES pH 7.4, 50 mM MgCl2, 0.5 mM MnCl2, 0.2 mM Na3VO4, 1 mM DTT) diluted ATP solution (49 μL) was added to each well, 1 μL of the compound to be tested was added to each well, and then 50 μL of DDR2 kinase domain recombinant protein diluted in the reaction buffer was added to start the reaction. Two control wells without ATP were set in each experiment. The plate placed on a shaker (100 rpm) at 37° C. for 1 hour of reaction. The liquid in the well was discarded and the plate was washed three times with T-PBS.
(§3) 3) Antibody PY99 dilution solution (the antibody was diluted 1:500 with T-PBS containing BSA 5 mg/mL) was added at 100 μL/well, and shaken on a shaker at 37° C. for 0.5 hour of reaction. The liquid in the well was discarded and the plate was washed three times with T-PBS.
(§4) 4) Horseradish peroxidase labeled goat anti-murine secondary antibody dilution solution (the antibody is diluted 1:2000 with T-PBS containing BSA 5 mg/ml) was added at 100 μL/well, and shaken on a shaker at 37° C. for 0.5 hour of reaction. The liquid in the well was discarded and the plate was washed three times with T-PBS.
(§5) 5) 2 mg/ml of OPD color developing solution [diluted with 0.1 M citric acid-sodium citrate buffer (pH=5.4) containing 0.03% H2O2] was added at 100 μL/well and reacted for 1 to 10 minutes at 25° C. in the dark.
(§6) 6) 2M H2SO4 was added at 50 μL/well to stop the reaction, and a tunable wavelength microplate reader VERSAmax was used for reading at a wavelength of 490 nm.
(§7) The IC50 value was obtained by four-parameter regression using the software that came with the microplate reader. […]

RET = RET (Homo sapiens (Human), UniProt P07949); experiment: Enzyme selectivity test (ELISA), RET; type: biochemical
Chain of RET (P07949 29-1114, species assumed): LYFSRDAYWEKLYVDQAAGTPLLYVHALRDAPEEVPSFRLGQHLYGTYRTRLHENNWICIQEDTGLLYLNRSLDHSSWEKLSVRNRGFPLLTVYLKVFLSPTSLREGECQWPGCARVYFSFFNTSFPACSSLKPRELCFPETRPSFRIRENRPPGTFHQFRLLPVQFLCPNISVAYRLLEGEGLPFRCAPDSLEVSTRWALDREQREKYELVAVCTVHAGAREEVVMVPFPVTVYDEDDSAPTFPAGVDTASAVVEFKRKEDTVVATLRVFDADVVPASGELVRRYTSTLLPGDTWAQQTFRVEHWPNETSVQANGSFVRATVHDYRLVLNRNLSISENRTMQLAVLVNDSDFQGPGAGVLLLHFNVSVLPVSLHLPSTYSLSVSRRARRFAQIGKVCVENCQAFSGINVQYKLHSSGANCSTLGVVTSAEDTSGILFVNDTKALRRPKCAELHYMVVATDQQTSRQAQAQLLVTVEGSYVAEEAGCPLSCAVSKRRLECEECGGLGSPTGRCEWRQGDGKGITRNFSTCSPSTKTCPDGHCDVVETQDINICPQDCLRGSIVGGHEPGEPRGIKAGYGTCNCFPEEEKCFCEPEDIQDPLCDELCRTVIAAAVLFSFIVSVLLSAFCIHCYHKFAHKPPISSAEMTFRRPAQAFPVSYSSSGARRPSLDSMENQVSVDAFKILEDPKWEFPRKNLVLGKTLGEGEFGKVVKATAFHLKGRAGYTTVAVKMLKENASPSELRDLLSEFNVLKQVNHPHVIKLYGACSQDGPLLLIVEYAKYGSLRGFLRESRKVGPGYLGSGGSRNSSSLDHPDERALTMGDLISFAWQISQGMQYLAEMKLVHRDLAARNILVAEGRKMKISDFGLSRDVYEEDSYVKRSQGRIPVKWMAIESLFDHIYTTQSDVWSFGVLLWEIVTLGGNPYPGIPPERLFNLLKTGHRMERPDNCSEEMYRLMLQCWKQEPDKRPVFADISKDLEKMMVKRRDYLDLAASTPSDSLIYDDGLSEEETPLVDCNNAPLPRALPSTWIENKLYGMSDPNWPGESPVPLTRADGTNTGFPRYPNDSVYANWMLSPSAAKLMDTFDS
Method: as §1, §2, §3, §4, §5, §6, §7

FGFR-1 = FGFR-1 (Homo sapiens (Human), UniProt P11362); experiment: Enzyme selectivity test (ELISA), FGFR-1; type: biochemical
Chain of FGFR-1 (P11362 22-822, species assumed): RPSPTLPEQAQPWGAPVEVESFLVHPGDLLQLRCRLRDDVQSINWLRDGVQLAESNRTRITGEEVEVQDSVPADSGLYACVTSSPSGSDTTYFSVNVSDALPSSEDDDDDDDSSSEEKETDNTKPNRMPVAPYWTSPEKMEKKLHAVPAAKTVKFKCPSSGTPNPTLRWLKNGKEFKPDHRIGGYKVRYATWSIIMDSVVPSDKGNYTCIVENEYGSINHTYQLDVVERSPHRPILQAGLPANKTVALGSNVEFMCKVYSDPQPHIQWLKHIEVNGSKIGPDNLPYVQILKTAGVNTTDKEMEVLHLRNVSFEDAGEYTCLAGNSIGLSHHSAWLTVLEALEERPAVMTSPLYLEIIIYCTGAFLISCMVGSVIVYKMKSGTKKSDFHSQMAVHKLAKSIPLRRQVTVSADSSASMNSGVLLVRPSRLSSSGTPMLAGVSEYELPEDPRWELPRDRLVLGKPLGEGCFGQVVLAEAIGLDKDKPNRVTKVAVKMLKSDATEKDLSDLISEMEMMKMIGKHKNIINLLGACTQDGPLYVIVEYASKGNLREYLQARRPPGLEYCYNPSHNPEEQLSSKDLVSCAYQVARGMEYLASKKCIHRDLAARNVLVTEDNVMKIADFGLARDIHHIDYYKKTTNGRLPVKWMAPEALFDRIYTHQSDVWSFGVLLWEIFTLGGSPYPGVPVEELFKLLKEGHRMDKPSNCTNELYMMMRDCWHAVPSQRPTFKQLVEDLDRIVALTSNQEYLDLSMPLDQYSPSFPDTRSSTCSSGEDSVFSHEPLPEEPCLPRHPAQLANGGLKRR
Method: as §1, §2, §3, §4, §5, §6, §7

[1] = system: pulmonary fibrosis induced by bleomycin in mice; experiment: Active TGF-β1 in BALF (ELISA); type: in vivo, mouse; details: 90 mg/kg; reduced from 123 pg/ml in BLM group
Method: The expression level of active TGF-β1 in BALF was detected by using the TGF-β1 ELISA detection kit (Shanghai Wuhao Bio-Tech Co., Ltd). The steps are as follows:
1) 10 standard wells were set on the enzyme coated plate. After the standard was diluted, the volume in each well was 50 μl, and the concentration was 1800 ng/L, 1200 ng/L, 600 ng/L, 300 ng/L, 150 ng/L, respectively. The concentration was the same every two tubes.
2) Sample addition: a blank well (no sample and enzyme reagent) and a well for the sample to be tested were set, respectively. 40 μl of sample dilution solution was added to the well for the sample to be tested on the enzyme coated plate, and then 10 μl of the sample to be tested was added.
3) Incubation: the sample to be tested was sealed with a sealing film and then incubated at 37° C. for 30 minutes.
4) Solution preparation: the concentrated washing liquid (30 times (20 times of 48T)) was diluted 30 times (20 times of 48T) with distilled water for use.
5) Wash: the liquid was discarded and spun dry. Each well was filled with the washing liquid. After standing for 30 seconds, the washing liquid was discarded. This was repeated 5 times and pat dry. […]
10) Determination: zero setting was performed using a blank well within 15 minutes after the reaction was stopped, and the absorbance (OD value) of each well was measured in sequence at a wavelength of 450 nm.

primary lung fibroblasts = experiment: Activation of myofibroblasts in primary lung fibroblasts isolated from mice; type: cell-based, mouse; details: primary lung fibroblasts isolated from mice of the experimental groups

Chain of EPH-A2 (P29317 24-976, species assumed): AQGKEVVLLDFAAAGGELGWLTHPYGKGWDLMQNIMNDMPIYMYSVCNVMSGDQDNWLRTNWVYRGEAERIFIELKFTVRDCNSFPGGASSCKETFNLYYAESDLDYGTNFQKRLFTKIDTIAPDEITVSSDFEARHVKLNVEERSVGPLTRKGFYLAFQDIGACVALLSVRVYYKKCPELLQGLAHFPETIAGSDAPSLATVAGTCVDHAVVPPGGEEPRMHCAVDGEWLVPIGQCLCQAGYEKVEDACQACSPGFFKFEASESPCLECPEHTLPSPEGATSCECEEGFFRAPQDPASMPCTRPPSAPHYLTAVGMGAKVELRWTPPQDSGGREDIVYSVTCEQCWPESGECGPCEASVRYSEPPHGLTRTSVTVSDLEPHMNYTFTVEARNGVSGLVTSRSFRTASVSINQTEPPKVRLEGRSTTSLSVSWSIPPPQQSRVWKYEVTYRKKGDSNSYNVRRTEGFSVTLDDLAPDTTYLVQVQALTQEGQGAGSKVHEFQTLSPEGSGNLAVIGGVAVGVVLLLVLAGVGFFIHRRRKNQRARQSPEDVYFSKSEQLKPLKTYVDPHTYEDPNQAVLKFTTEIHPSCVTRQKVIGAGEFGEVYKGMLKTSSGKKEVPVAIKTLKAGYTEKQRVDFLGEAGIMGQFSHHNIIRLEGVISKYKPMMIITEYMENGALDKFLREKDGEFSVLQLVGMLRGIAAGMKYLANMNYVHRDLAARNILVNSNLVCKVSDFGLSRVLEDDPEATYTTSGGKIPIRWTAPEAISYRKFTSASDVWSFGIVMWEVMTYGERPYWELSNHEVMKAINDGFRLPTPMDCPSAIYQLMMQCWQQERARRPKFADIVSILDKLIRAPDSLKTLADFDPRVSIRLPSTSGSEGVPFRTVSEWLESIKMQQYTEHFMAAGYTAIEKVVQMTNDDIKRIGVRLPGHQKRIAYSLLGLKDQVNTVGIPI

O=C(Nc1cccc(C(F)(F)F)c1)c1ccc(C2CC2)c(-c2ccc3nc(Nc4cnn(C5CC5)c4)ncc3c2)c1 [Compound S15, 4-cyclopropyl-3-(2-((1-cyclopropyl-1H-pyrazol-4-yl)amino)quinazolin-6-yl)-N-(3-(trifluoromethyl)phenyl)benzamide]
IC50 (EPH-A2): > 10 nM | IC50 (RET): > 1000 nM | IC50 (FGFR-1): > 10 nM | active TGF-β1 in BALF [1]: 48 pg/mL | activation of myofibroblasts (primary lung fibroblasts): inhibit the activation of myofibroblasts in a dose-dependent manner
